In ChEMBL document CHEMBL2406999, “Vialinin A is a ubiquitin-specific peptidase inhibitor” (Bioorg Med Chem Lett, 2013):
Where a chain is given by its changes, count along the chain named. pIC50: −log10 of the molar value. The source made the active and inactive calls. The rule behind the calls is not given here.

Columns and labels:
[1] = tested on: T1, Ubiquitin carboxyl-terminal hydrolase 5 (Homo sapiens), P45974 [C335A,H818A]; assay: Competitive binding affinity to human USP5 C335A/H818A mutant by SDS-PAGE analysis in presence of biotin-DMT
T1 sequence (whole entry): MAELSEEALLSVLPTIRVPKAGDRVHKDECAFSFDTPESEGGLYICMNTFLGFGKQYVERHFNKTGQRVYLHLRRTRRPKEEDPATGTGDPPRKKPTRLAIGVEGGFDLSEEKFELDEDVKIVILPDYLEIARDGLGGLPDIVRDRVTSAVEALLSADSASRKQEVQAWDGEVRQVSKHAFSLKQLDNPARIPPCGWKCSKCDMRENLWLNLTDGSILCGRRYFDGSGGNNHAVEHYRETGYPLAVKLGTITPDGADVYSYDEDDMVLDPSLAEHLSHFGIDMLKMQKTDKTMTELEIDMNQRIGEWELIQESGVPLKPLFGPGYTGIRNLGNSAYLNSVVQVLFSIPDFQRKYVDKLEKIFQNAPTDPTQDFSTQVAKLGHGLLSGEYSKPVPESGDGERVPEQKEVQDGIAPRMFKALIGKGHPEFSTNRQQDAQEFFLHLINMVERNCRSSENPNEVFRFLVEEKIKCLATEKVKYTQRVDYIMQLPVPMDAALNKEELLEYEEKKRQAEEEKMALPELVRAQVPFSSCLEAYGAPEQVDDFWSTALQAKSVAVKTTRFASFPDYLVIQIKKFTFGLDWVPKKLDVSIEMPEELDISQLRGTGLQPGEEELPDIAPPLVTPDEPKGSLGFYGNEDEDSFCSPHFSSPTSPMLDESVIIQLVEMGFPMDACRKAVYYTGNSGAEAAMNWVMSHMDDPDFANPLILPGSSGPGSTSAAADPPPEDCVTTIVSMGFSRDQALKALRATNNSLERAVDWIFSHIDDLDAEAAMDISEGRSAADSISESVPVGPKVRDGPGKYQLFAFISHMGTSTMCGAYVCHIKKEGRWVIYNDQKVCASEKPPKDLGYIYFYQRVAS

[2] = tested on: T2, Ubiquitin carboxyl-terminal hydrolase 5 (Homo sapiens), P45974 [H818A]; assay: Competitive binding affinity to human USP5 H818A mutant by SDS-PAGE analysis in presence of biotin-DMT
T2 sequence (whole entry): T1 sequence (whole entry) with A335C

[3] = target: T3, Ubiquitin carboxyl-terminal hydrolase 4 (Homo sapiens, UniProt Q13107); assay: Inhibition of human USP4 using Ub-AMC as substrate after 60 mins by fluorometric analysis
T3 sequence (Q13107 whole entry): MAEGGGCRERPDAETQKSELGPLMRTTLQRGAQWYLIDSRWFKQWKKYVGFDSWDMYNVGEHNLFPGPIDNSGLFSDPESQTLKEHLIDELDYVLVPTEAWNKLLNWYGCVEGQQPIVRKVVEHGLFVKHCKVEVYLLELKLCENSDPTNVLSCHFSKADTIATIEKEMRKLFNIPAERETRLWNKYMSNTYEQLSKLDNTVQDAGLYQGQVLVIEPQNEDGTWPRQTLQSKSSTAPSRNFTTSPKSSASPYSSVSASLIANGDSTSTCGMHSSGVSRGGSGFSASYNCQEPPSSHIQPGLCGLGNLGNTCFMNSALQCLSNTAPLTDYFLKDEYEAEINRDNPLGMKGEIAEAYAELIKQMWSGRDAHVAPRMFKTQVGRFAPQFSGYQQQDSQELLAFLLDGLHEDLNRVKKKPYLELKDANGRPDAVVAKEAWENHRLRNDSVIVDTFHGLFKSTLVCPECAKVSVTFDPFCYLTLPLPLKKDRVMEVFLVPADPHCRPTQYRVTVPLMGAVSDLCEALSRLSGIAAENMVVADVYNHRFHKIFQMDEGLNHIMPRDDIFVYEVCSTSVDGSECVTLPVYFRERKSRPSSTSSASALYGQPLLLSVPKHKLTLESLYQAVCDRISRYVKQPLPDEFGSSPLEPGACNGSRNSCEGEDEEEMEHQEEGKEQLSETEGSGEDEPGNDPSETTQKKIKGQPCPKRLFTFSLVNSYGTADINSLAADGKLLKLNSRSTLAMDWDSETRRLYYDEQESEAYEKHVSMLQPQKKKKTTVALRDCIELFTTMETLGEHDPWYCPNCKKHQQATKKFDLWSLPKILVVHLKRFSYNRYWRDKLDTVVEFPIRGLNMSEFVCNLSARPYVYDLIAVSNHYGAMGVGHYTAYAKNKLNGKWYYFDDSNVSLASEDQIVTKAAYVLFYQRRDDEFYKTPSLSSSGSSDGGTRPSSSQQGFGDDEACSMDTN

SMILES: O=C(Cc1ccccc1)Oc1c(OC(=O)Cc2ccccc2)c(-c2ccc(O)cc2)c(O)c(O)c1-c1ccc(O)cc1 [VIALININ A]
- Activity [1]: inactive
- Activity [2]: inactive
- pIC50 [3]: 5.82
